Measured values published in paper PMC9851200, “Multiparameter phenotypic screening for endogenous TFEB and TFE3 translocation identifies novel chemical series modulating lysosome function” (Autophagy, 2022).

Columns and labels:
TFE3 = TFE3 nuclear translocation in iPSC-derived i3Neurons; type: cell-based, human; details: day 10
Procedure: hiPSCs were maintained under feeder-free conditions in a 37°C, 5% CO2 tissue culture incubator on tissue culture treated dishes coated with growth factor-reduced Matrigel (Corning, 354,277) and fed every 1–2 days with Essential 8 medium (Life Technologies, A1517001), as needed. Accutase ([…] Technologies, 07920) was used to enzymatically dissociate hiPSCs into single cells, and 0.5 mM EDTA was used for routine dissociation to maintain colony growth. To promote cell survival during passaging, cells were passaged with the ROCK/p160-Rho-associated coiled coil kinase inhibitor Y-27632 ([…]; Selleckchem, S1049). hiPSC-derived i^3Neurons were induced and differentiated according to Fernandopulle et al. and replated on high-content 96-well dishes (PerkinElmer, CellCarrierUltra-96) by day 3. […]
After the required compound incubation, media was removed from the wells and the cells were fixed in 4% paraformaldehyde (PFA; ThermoFisher Scientific/Pierce, 28,908) for 20 min. […] The Harmony image analysis software (Perkin Elmer) was used to identify nuclei TFEB or TFE3 positive nuclei, expressed as a percentage of total cell number (See Figure S2 and S3 for analysis protocols). Mean values and standard deviation of DMSO control wells on the plate were calculated. […]

CLEAR genes = assay: RT-qPCR of CLEAR gene expression; type: cell-based; details: SH-SY5Y, 1 µM compound, 48 h
Procedure: We assessed autophagic flux by quantifying LC3-II levels using western blotting in compound-treated cells in the presence or absence of the lysosomal inhibitor bafilomycin A1. […] Given the lack of correlation between the ability of the compounds to upregulate CLEAR genes, and changes in LC3-II levels, the action of the compounds was therefore independent of autophagic flux. SH-SY5Y cells were treated with compounds in 12-well or 24-well plates (Corning Costar, […]). Cell pellets were harvested and RNA was extracted using the RNeasy Mini Kit (QIAGEN, 74,104) according to manufacturer's instructions. cDNA was generated from 500 ng RNA using Superscript III Reverse Transcriptase (Thermofisher Scientific, 18,080,085). Expression of the CLEAR genes CTSD, HEXA, LAMP1, CLCN7, ATP6V0A1, SQSTM1, UVRAG and GABARAP were assessed using Fast SYBR Green Master Mix standard protocol (Thermofisher Scientific, 4,309,155), on a StepOnePlusTM Real-Time PCR System (Applied biosystems, Waltham, MA, USA). Primer sequences are shown in Table S7A and were designed in Primer3 or by OriGene Technologies and validated in house for efficiency and specificity.

TLK2 = molecular target: T1, TLK2 (Homo sapiens, UniProt Q86UE8); assay: KiNativ in-cell kinase binding, TLK2; details: SH-SY5Y cells
T1 construct: endogenous in cells; host or cells: SH-SY5Y
T1 sequence (Q86UE8 whole entry): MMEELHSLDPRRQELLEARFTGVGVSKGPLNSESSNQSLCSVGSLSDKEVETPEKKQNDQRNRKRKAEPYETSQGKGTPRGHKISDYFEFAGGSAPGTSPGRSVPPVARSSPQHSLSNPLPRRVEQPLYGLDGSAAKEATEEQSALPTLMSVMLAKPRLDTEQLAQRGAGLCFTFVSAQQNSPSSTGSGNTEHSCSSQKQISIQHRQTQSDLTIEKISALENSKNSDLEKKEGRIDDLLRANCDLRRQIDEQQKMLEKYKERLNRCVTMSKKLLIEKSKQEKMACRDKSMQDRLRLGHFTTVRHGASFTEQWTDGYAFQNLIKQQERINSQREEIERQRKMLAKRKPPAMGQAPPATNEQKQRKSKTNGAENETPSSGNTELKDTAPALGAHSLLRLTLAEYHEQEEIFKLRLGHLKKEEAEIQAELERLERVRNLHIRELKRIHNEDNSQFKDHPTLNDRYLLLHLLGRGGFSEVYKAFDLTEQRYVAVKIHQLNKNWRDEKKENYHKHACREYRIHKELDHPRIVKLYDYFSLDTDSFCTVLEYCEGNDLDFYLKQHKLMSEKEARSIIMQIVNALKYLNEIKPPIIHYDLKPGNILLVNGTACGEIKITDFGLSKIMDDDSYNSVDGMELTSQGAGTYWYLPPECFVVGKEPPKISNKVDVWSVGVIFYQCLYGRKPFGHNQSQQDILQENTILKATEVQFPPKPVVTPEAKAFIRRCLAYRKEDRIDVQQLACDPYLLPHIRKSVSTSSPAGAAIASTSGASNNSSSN
Excerpt: As KINOMEscan is an in vitro assay, and as different cell types have variable kinase expression profiles we sought to determine the kinase binding profile in our SH-SY5Y TFEB-relocalization cell model. […] Bound kinases were pulled down and analyzed by mass spectrometry to determine the in situ kinase binding profile for each compound.

MINK1/MINK = MINK1/MINK (Homo sapiens, UniProt Q8N4C8); type: binding
Chain of MINK1/MINK (Q8N4C8 whole entry): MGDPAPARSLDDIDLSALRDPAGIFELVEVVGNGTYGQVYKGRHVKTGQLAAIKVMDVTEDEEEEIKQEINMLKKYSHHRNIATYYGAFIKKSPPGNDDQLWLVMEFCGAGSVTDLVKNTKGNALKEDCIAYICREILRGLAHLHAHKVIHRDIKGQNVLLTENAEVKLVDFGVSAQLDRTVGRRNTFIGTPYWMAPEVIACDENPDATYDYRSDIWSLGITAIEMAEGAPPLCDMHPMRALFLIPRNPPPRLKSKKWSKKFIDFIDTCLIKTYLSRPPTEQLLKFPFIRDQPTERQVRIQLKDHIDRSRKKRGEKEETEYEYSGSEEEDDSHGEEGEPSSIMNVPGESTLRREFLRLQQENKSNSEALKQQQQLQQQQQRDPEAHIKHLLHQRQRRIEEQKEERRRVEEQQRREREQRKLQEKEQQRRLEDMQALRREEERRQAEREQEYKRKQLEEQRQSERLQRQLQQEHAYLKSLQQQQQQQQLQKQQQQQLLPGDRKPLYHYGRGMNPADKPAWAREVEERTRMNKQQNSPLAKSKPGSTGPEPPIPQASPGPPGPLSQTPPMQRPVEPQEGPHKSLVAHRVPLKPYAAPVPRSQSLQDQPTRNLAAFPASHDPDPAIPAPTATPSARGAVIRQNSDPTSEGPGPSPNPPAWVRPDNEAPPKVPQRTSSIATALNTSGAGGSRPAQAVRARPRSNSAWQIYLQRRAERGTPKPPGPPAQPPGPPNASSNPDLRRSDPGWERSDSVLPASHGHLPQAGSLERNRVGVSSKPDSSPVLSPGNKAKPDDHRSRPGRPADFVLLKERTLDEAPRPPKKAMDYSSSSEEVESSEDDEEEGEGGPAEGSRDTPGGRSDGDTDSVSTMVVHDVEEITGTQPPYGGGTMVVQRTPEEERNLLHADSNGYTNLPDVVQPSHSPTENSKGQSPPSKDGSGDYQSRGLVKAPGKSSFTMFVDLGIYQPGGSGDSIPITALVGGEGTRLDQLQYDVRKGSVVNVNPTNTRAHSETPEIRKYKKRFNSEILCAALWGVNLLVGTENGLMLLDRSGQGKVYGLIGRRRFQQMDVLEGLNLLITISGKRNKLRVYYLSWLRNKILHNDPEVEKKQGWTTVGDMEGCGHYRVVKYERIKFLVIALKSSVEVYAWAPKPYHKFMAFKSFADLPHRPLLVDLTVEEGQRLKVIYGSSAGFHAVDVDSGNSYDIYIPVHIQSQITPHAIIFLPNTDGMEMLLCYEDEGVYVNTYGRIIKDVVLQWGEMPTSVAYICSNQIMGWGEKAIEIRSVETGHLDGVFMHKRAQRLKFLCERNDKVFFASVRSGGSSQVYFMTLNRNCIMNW

MAPK10/JNK3 = MAPK10/JNK3 (Homo sapiens, UniProt P53779); type: binding
Chain of MAPK10/JNK3 (P53779 whole entry): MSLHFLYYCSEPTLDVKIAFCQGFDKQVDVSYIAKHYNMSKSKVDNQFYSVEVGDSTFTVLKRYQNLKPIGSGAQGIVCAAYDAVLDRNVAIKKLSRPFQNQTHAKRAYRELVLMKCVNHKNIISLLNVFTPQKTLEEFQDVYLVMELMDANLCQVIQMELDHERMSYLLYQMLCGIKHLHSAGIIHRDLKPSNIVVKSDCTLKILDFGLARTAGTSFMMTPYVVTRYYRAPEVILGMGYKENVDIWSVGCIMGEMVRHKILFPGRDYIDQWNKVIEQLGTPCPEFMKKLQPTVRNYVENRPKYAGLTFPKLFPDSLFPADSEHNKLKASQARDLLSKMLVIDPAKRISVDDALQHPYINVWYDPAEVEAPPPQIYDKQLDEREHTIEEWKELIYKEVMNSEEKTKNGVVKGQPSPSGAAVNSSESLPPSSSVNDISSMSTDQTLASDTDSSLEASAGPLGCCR

Row | Compound | Nuclear translocation of TFE3 in i3Neurons (in words) (TFE3) | CLEAR gene expression (in words) (CLEAR genes) | inhibition at 2 µM (TLK2; Labeling Site Lys1, YVAVKIHQLNK) | inhibition at 2 µM (TLK2; Labeling Site Lys2, YLNEIKPPIIHYDLKPGNILLVNGTACGEIK) | KINOMEscan MINK1/MINK (MINK1/MINK) | KINOMEscan MAPK10/JNK3 (MAPK10/JNK3)
1 | Cc1cccc(-c2nc(Nc3ccc4ncsc4c3)c3ccccc3n2)n1 [NK140] | trend toward upregulation of TFE3 translocation | upregulation of a number of CLEAR genes | 52.7% | 50% | – | –
2 | Cc1cccc(-c2nc(N(C)c3ccc4ncsc4c3)c3ccccc3n2)n1 [NK-161] | – | – | – | – | 22 | 16
